The text below walks through data of US5830433A, “Radiolabeled growth hormone secretagogue” (Merck & Co., Inc., priority 1996, dated 1998).

A short description of the data set: storage stability of the radioligand in solution. It is filed as physicochemical. Particulars: trace hcl; stored at -20° C. as a solution in 15% methanol/water containing a trace of hydrochloric acid; read-out: stability, loss of radiochemical purity.

Turning to `CC(C)(N)C(=O)N[C@H](COCc1ccccc1)C(=O)N1CCC2(CC1)CN([35S](C)(=O)=O)c1ccccc12` [[^35 S]-radioligand, [^35 S]N-[1(R)-[(1,2-Dihydro-1-methanesulfonylspiro[3H-indole-3,4'-piperdin]-1'-yl)carbonyl]-2-(phenylmethyloxy)ethyl]-2-amino-2-methylpropanamide], the degraded at 730 h is under 0.5%.
